{
  "source": "patent US7973219B2",
  "about": "“Method for producing transgenic plants resistant to weed control compounds which disrupt the porphyrin pathways of plants” (Sumitomo Chemical Company, Limited, priority 1998, dated 2011)",
  "tested_on": "tobacco bearing introduced both Arabidopsis thaliana PPO(A220V) gene and gene encoding the variant tobacco chelatase subunit",
  "test": "Leaf piece chlorophyll test, tobacco with PPO(A220V) gene and variant tobacco chelatase subunit gene",
  "format": "in vivo",
  "settings": "2.0 ppm, 7 days in a light place, Example 37",
  "excerpt": "Tobacco leaf pieces cultured sterilely were infected with the Agrobacterium strain and, according to the same manner as in Example 5, tobacco bearing the introduced both Arabidopsis thaliana PPO(A220V) gene and gene encoding the variant tobacco chelatase subunit was obtained.\nLeaves of the tobacco bearing the introduced both Arabidopsis thaliana PPO(A220V) gene and gene encoding the variant tobacco chelatase subunit produced in Example 36, those bearing the introduced Arabidopsis thaliana PPO(A220V) gene produced in Example 35, and the control recombinant tobacco leaves produced in Example 5were collected, and each leaf was divided into the right and left equivalent pieces along the main vein. One of the pieces was treated with an aqueous solution containing 2.0 ppm PPO inhibitory-type herbicidal compound of Structure 8, while the other piece was not treated with the compound. These leaf pieces were placed on MS medium containing 0.8% agar and allowed to stand at room temperature for 7 days in a light place. Then, each leaf piece was ground in 5 ml of 80% aqueous acetone solution in a mortar with a pestle to extract chlorophyll. The extract was diluted 10 times with 80% aqueous acetone solution and the absorbance was measured at 750 nm, 663 nm and 645 nm to calculate the total chlorophyll content according to the method described by Macknney G., J. Biol. Chem. (1941) 140, p 315. […]",
  "data": [
    {"smiles": "C#CCOc1cc(N2C(=O)C3=C(CCCC3)C2=O)c(F)cc1Cl", "note": "[Structure 8]", "values": [
      {"measurement": "resistant level", "result": 61.6, "unit": "%"}
    ]}
  ]
}
